From the NIST ThermoML archive (doi:10.1021/je800460a)
Numbers after ± are expanded uncertainties.

Test: wn = mass fraction of the nth substance listed
Conditions: 101 kPa, Liquid

NC(CO)(CO)CO [2-amino-2-(hydroxymethyl)-1,3-propanediol] + O
Conditions	mass density, w1 = 0.0217 [kg/m3]	mass density, w1 = 0.051 [kg/m3]	mass density, w1 = 0.103 [kg/m3]	mass density, w1 = 0.158 [kg/m3]	mass density, w1 = 0.217 [kg/m3]	viscosity, w1 = 0.0217 [mPa·s]	viscosity, w1 = 0.051 [mPa·s]	viscosity, w1 = 0.103 [mPa·s]	viscosity, w1 = 0.158 [mPa·s]	viscosity, w1 = 0.217 [mPa·s]
298 K	1001.3 ± 1	1009 ± 1	1021.6 ± 1.1	1033.6 ± 1.1	1046.5 ± 1.1	0.913 ± 0.028	0.995 ± 0.031	1.148 ± 0.036	1.353 ± 0.043	1.605 ± 0.051
303 K	999.6 ± 1.1	1007.4 ± 1.1	1019.2 ± 1.1	1031.8 ± 1.1	1044.2 ± 1.2	0.874 ± 0.028	0.94 ± 0.03	1.059 ± 0.034	1.223 ± 0.039	1.449 ± 0.046
313 K	994.9 ± 1.2	1002.8 ± 1.2	1014.6 ± 1.2	1026.8 ± 1.3	1038.9 ± 1.3	0.733 ± 0.024	0.799 ± 0.026	0.884 ± 0.029	1.008 ± 0.033	1.172 ± 0.038
323 K	988.1 ± 1.3	996 ± 1.4	1008.2 ± 1.4	1019.9 ± 1.4	1032.7 ± 1.4	0.6 ± 0.021	0.65 ± 0.022	0.711 ± 0.024	0.808 ± 0.027	0.93 ± 0.032
